One assay deals with ERBB2. The conditions noted are these: ERBB2 (2nd target, 2nd value); ref chemicalprobes.org; cited from earlier work.
For the next assay, the target named is T1, PRKACG (Homo sapiens, UniProt P22612).
T1 construct: endogenous in cells
The experiment in a line: Kinobeads full dose-response competition binding: PRKACG. The conditions noted are these: Gene Name PRKACG.

For the next assay, the target named is T2, DYRK1A (Homo sapiens, UniProt Q13627).
T2 construct: endogenous in cells
The experiment in a line: Kinobeads two-dose competition binding: DYRK1A. As to conditions: read-out: Lestaurtinib Drugmatrix value, Gene Name DYRK1A, target DYRK1A; each column = one Lestaurtinib control replicate (batch_R1-R3).

A further assay addresses T3, EPHA2 (Homo sapiens, UniProt P29317).
T3 construct: endogenous in cells
The assay can be described thus: Kinobeads two-dose competition binding: EPHA2. The conditions noted are these: read-out: Lestaurtinib Drugmatrix value, Gene Name EPHA2.

The next assay deals with T4, PIM1 (Homo sapiens, UniProt P11309).
T4 construct: a mixture of lysates from five cancer cell lines; endogenous in cells
The assay can be described thus: Kinobeads competition binding, Lestaurtinib control replicates: PIM1. As to conditions: read-out: Lestaurtinib Drugmatrix value; Gene Name PIM1; one column per experiment number and replicate (R1-R3).

The target of the next assay is T5, PIP4K2C (Homo sapiens, UniProt Q8TBX8).
T5 construct: a mixture of lysates from five cancer cell lines; endogenous in cells
T5 sequence (Q8TBX8 1-421): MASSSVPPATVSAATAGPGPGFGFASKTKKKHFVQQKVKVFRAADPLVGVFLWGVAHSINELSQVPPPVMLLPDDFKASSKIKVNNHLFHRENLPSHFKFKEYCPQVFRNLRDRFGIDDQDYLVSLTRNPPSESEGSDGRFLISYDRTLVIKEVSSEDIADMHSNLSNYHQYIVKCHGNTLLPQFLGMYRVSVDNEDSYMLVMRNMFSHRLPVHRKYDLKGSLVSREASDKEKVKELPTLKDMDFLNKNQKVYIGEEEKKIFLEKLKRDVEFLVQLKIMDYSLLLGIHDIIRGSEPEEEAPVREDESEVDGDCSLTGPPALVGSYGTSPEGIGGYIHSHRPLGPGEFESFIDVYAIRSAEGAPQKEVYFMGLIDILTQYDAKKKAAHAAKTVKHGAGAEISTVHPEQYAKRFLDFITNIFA
The experiment in a line: Kinobeads competition binding, Lestaurtinib control replicates: PIP4K2C. The conditions noted are these: read-out: Lestaurtinib Drugmatrix value; Gene Name PIP4K2C; one column per experiment number and replicate (R1-R3).

A further assay concerns the target T6, MOB1A (Homo sapiens, UniProt Q9H8S9).
T6 construct: to maximize the representation of endogenous proteins; endogenous in cells
T6 sequence (Q9H8S9 2-216 limits assumed): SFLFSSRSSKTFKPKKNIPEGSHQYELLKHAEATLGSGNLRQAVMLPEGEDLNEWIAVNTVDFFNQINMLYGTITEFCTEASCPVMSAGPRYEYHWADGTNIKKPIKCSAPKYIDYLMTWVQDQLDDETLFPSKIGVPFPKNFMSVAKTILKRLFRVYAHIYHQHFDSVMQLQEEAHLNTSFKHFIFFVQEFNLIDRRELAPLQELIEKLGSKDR
T6 sequence (O95835 1-1130 partner): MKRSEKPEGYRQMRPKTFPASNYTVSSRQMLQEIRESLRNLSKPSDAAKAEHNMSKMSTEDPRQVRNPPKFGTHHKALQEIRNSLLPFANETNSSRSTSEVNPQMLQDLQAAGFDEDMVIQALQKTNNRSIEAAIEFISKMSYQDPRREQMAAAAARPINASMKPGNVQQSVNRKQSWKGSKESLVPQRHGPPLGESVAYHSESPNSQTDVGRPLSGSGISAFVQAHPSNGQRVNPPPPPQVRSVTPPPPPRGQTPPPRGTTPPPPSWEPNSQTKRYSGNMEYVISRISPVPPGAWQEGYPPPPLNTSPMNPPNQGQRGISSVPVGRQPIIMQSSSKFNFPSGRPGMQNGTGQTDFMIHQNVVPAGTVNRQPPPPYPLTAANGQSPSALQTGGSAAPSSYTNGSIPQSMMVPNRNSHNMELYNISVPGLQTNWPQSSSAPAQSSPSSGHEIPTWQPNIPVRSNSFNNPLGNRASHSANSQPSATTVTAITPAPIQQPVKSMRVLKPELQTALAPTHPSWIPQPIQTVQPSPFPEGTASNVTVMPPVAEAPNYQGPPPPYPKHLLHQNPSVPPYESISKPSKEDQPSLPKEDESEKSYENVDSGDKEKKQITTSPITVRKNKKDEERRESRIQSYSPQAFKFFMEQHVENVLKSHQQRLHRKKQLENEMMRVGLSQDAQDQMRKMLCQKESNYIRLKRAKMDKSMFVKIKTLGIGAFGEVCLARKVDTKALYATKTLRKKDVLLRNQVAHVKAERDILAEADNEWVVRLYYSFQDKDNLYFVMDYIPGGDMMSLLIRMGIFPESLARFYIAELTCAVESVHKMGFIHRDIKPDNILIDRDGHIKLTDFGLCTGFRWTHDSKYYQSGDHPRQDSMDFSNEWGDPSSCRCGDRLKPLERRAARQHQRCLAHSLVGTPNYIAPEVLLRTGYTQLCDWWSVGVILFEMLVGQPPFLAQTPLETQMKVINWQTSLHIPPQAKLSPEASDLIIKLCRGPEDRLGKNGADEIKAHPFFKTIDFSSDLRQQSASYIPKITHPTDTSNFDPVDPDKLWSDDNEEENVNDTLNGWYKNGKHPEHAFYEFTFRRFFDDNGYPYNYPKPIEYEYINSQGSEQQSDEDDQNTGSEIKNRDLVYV
The assay can be described thus: Kinobeads full dose-response competition binding: MOB1A. As to conditions: Gene Name MOB1A.

Where [1] appears, read: EC50 with Correction, doses in nM, read-out: apparent Kd.
The mark [2] stands for this setting: eight-dose curve fit, doses in nM.

In the case of `CN(C)C/C=C/C(=O)Nc1cc2c(Nc3ccc(F)c(Cl)c3)ncnc2cc1O[C@H]1CCOC1` [Afatinib], the Potency value in the assay on ERBB2 is given as 0.5 nM, 14 nM.
On to `CCn1c(-c2nonc2N)nc2c(C#CC(C)(C)O)nc(OCCNC)cc21` [GSK949675A], for which the “Relative Intensity 0.3nM” value on PRKACG (0.3nM compound, DMSO = 1) is on record as 0.6931. Further, the “Relative Intensity 1nM” value on PRKACG (1nM compound, DMSO = 1) worked out at 0.8057. Further, at PRKACG (3nM compound, DMSO = 1), the “Relative Intensity 3nM” value was 0.9707. The “Relative Intensity 10nM” value at PRKACG (10nM compound, DMSO = 1) was found to be 0.8006. In addition, on PRKACG (30nM compound, DMSO = 1), the “Relative Intensity 30nM” value stood at 0.7952. The “Relative Intensity 100nM” value on PRKACG (100nM compound, DMSO = 1) is listed as 0.9305. Further, the “Relative Intensity 300nM” value at PRKACG (300nM compound, DMSO = 1) was determined as 0.645. Moreover, the “Relative Intensity 1000nM” value at PRKACG (1000nM compound, DMSO = 1) amounted to 0.4141. In addition, at PRKACG (setting [1]), the Kd turned out to be 262 nM. Moreover, at PRKACG (setting [2]), the midpoint of the response, the EC50, lay at 303 nM.
For `C[C@]12O[C@H](C[C@]1(O)CO)n1c3ccccc3c3c4c(c5c6ccccc6n2c5c31)CNC4=O` [Lestaurtinib], the potency estimated from few doses was 820 nM at DYRK1A, 428 nM at EPHA2, 860 nM at PIM1 and 86.5 nM on PIP4K2C.
As to `CCn1c(-c2nonc2N)nc2c(C#CC(C)(C)O)nc(OCCN)cc21` [GSK902056A], the “Relative Intensity 0.3nM” value at MOB1A (0.3nM compound, DMSO = 1) turned out to be 1.163. Further, the “Relative Intensity 1nM” value on MOB1A (1nM compound, DMSO = 1) turned out to be 0.99. Also, the “Relative Intensity 3nM” value at MOB1A (3nM compound, DMSO = 1) was 1.359. Further, the “Relative Intensity 10nM” value at MOB1A (10nM compound, DMSO = 1) amounted to 0.9582. Also, at MOB1A (30nM compound, DMSO = 1), the “Relative Intensity 30nM” value was 0.9019. At MOB1A (100nM compound, DMSO = 1), the “Relative Intensity 100nM” value turned out to be 0.7347. The “Relative Intensity 300nM” value on MOB1A (300nM compound, DMSO = 1) stood at 0.3297. The “Relative Intensity 1000nM” value on MOB1A (1000nM compound, DMSO = 1) is listed as 0. Moreover, the Kd on MOB1A (setting [1]) stood at 223 nM. Further, the concentration for a half-maximal effect (EC50) (in general, the concentration needed to bring the measured effect to its halfway point) at MOB1A (setting [2]) was 223 nM.

Values taken from article PMC11062922 (Nature Chemical Biology, 2023).
